In patent US20230226062A1, “HETEROCYCLIC COMPOUNDS AS IMMUNOMODULATORS” (Incyte Corporation, priority 2016, published 2023):

Molecular target: T1, PD-1/PD-L1 (Homo sapiens, UniProt Q9NZQ7)
T1 construct: Recombinant human PD-L1 protein (19-238) with a His-tag at the C-terminus; purchased AcroBiosystems PD1-H5229 (PD-L1); PD1-H5257 (PD-1)
Experiment: PD-1/PD-L1 Homogeneous Time-Resolved Fluorescence (HTRF) binding assay
Conditions: recombinant human PD-L1 (19-238)-His 10 nM, human PD-1 (25-167)-Fc 3 nM, 25° C., PBS pH 7.4
Protocol: Example A. PD-1/PD-L1 Homogeneous Time-Resolved Fluorescence (HTRF) Binding Assay
The assays were conducted in a standard black 384-well polystyrene plate with a final volume of 20 μL. Inhibitors were first serially diluted in DMSO and then added to the plate wells before the addition of other reaction components. The final concentration of DMSO in the assay was 1%. The assays were carried out at 25° C. in the PBS buffer (pH 7.4) with 0.05% Tween-20 and 0.1% BSA. Recombinant human PD-L1 protein (19-238) with a His-tag at the C-terminus was purchased from AcroBiosystems (PD1-H5229). Recombinant human PD-1 protein (25-167) with Fc tag at the C-terminus was also purchased from AcroBiosystems (PD1-H5257). PD-L1 and PD-1 proteins were diluted in the assay buffer and 10 μL was added to the plate well. Plates were centrifuged and proteins were preincubated with inhibitors for 40 minutes. The incubation was followed by the addition of 10 μL of HTRF detection buffer supplemented with Europium cryptate-labeled anti-human IgG (PerkinElmer-AD0212) specific for Fc and anti-His antibody conjugated to SureLight®-Allophycocyanin (APC, PerkinElmer-AD0059H). After centrifugation, the plate was incubated at 25° C. for 60 min. before reading on a PHERAstar FS plate reader (665 nm/620 nm ratio). Final concentrations in the assay were—3 nM PD1, 10 nM PD-L1, 1 nM europium anti-human IgG and 20 nM anti-His-Allophycocyanin. IC50 determination was performed by fitting the curve of percent control activity versus the log of the inhibitor concentration using the GraphPad Prism 5.0 software.

T1 sequence (Q9NZQ7 19-238): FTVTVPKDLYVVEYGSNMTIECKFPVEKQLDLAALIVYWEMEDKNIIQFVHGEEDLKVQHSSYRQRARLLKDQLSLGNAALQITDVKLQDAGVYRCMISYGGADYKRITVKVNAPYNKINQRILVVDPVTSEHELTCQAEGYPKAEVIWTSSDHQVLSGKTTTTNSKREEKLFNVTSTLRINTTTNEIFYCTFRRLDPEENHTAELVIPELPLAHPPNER

IC50 [nM] | SMILES
1000 to 2000 | Cc1c(NC(=O)N2CCCC(N)C2)cccc1-c1ccccc1 (centres unmarked) [Example 33, 3-amino-N-(2-methylbiphenyl-3-yl)piperidine-1-carboxamide]
100 to 1000 | Cc1c(-c2ccccc2)cccc1-c1cnc2c(c1)CNCC2 [Example 20, 3-(2-methylbiphenyl-3-yl)-5,6,7,8-tetrahydro-1,6-naphthyridine]
100 to 1000 | Cc1c(-c2ccccc2)cccc1N1CCc2cc(CNCCO)ccc2C1 [Example 14, 2-((2-(2-methylbiphenyl-3-yl)-1,2,3,4-tetrahydroisoquinolin-6-yl)methylamino)ethanol]
10 to 100 | NCc1ccc(-c2cccc(-c3ccccc3)c2Cl)cn1 [Example 6, (5-(2-chlorobiphenyl-3-yl)pyridin-2-yl)methanamine]
10 to 100 | Cc1c(-c2ccccc2)cccc1-c1ccc2c(c1)CNC2 [Example 5, 5-(2-methylbiphenyl-3-yl)isoindoline]
100 to 1000 | Cc1c(-c2ccccc2)ccnc1-c1ccc(CN)cc1 [Example 21, (4-(3-methyl-4-phenylpyridin-2-yl)phenyl)methanamine]
≤ 10 | Cc1c(-c2nc3c(s2)CN(C(=O)CN(C)C)C3)cccc1-c1cccc(-c2nc3c(s2)CN(C(=O)CN2CC[C@@H](O)C2)C3)c1C [Example 35, (R)-2-(dimethylamino)-1-(2-(3′-(5-(2-(3-hydroxypyrrolidin-1-yl)acetyl)-5,6-dihydro-4H-pyrrolo[3,4-d]thiazol-2-yl)-2,2′-dimethylbiphenyl-3-yl)-4H-pyrrolo[3,4-d]thiazol-5(6H)-yl)ethanone]
1000 to 2000 | Cc1c(NCC2CCCNC2)cccc1-c1ccccc1 (centres unmarked) [Example 28, 2-methyl-N-(piperidin-3-ylmethyl)biphenyl-3-amine]
≤ 10 | CCN(C)CC(=O)N1Cc2nc(-c3cccc(-c4cccc(C#CC5CCNCC5)c4C)c3C)sc2C1 [Example 36, 1-(2-(2,2′-dimethyl-3′-(piperidin-4-ylethynyl)biphenyl-3-yl)-4H-pyrrolo[3,4-d]thiazol-5(6H)-yl)-2-(ethyl(methyl)amino)ethanone]
100 to 1000 | Cc1c(NC(=O)c2cccn3c(CN4CCCC[C@H]4C(=O)O)cnc23)cccc1-c1ccccc1 [Example 11, (S)-1-((8-(2-methylbiphenyl-3-ylcarbamoyl)imidazo[1,2-a]pyridin-3-yl)methyl)piperidine-2-carboxylic acid]
100 to 1000 | Cc1c(-c2ccccc2)cccc1-c1ccc2c(c1)CCC(CN(C)C)O2 (centres unmarked) [Example 16, N,N-dimethyl-1-(6-(2-methylbiphenyl-3-yl)chroman-2-yl)methanamine]
100 to 1000 | Cc1c(-c2ccccc2)cccc1N1Cc2ccc(CNCCO)cc2C1 [Example 19, 2-((2-(2-methylbiphenyl-3-yl)isoindolin-5-yl)methylamino)ethanol]
10 to 100 | CCN(C)CC(=O)N1Cc2nc(-c3cccc(-c4cccc(N5CCn6cncc6C5)c4C)c3C)sc2C1 [Example 38, 1-(2-(3′-(5,6-dihydroimidazo[1,5-a]pyrazin-7(8H)-yl)-2,2′-dimethylbiphenyl-3-yl)-4H-pyrrolo[3,4-d]thiazol-5(6H)-yl)-2-(ethyl(methyl)amino)ethanone]
10 to 100 | Cc1c(-c2ccccc2)cccc1-c1ccc(CNCCO)cc1 [Example 7, 2-{[(2′-methyl-1,1′:3′,1″-terphenyl-4-yl)methyl]amino}ethanol]
1000 to 2000 | OCC1(CNC2CCN(c3cccc(Nc4ccccc4)c3Cl)CC2)CCC1 [Example 23, (1-((1-(2-chloro-3-(phenylamino)phenyl)piperidin-4-ylamino)methyl)cyclobutyl)methanol]
100 to 1000 | Cc1c(-c2ccccc2)cccc1N1CCC[C@@H](N)C1 [Example 26, (R)-1-(2-methylbiphenyl-3-yl)piperidin-3-amine]
10 to 100 | Cc1c(-c2ccccc2)cccc1-c1ccc2nc(CN3CCCC[C@H]3C(=O)O)cc(C)c2c1 [Example 4, (S)-1-((4-methyl-6-(2-methylbiphenyl-3-yl)quinolin-2-yl)methyl)piperidine-2-carboxylic acid]
100 to 1000 | Cc1c(-c2ccccc2)cccc1N1CCC2(CCCC(=O)N2)CC1 [Example 30, 9-(2-methylbiphenyl-3-yl)-1,9-diazaspiro[5.5]undecan-2-one]
10 to 100 | Cc1c(-c2ccccc2)cccc1-c1cnn(C[C@@H]2CCCN2)c1 [Example 2, 4-(2-methylbiphenyl-3-yl)-1-[(2S)-pyrrolidin-2-ylmethyl]-1H-pyrazole]

IC50 [nM] | SMILES
100 to 1000 | OCCNCc1ccc(CN2CCc3c(-c4ccccc4)cccc32)c(Cl)c1 [Example 40, 2-({3-chloro-4-[(4-phenyl-2,3-dihydro-1H-indol-1-yl)methyl]benzyl}amino)ethanol]
1000 to 2000 | Cc1c(-c2ccccc2)cccc1N1CC[C@H](CN)C1 [Example 29, (R)-(1-(2-methylbiphenyl-3-yl)pyrrolidin-3-yl)methanamine]
100 to 1000 | N#Cc1c(-c2ccccc2)csc1Nc1nccc2cc(CNCCO)cnc12 [Example 34, 2-[(3-{[(2-hydroxyethyl)amino]methyl}-1,7-naphthyridin-8-yl)amino]-4-phenylthiophene-3-carbonitrile]
100 to 1000 | OCC1(CNC2CCN(c3cccc(NCc4ccccc4)c3Cl)CC2)CCC1 [Example 24, (1-((1-(3-(benzylamino)-2-chlorophenyl)piperidin-4-ylamino)methyl)cyclobutyl)methanol]
10 to 100 | Cc1c(Oc2ncnc3c(CNCCO)csc23)cccc1-c1ccccc1 [Example 1, 2-((4-(2-methylbiphenyl-3-yloxy)thieno[3,2-d]pyrimidin-7-yl)methylamino)ethanol]
100 to 1000 | Cc1c(Nc2ccc3c(c2)CCNC3)cccc1-c1ccccc1 [Example 15, N-(2-methylbiphenyl-3-yl)-1,2,3,4-tetrahydroisoquinolin-6-amine]
100 to 1000 | Cc1c(-c2ccccc2)cccc1N1CCC2(CCCCN2)CC1 [Example 31, 9-(2-methylbiphenyl-3-yl)-1,9-diazaspiro[5.5]undecane]
100 to 1000 | O[C@H]1CC[C@@H](NCc2ccc(N3CCCC(c4ccccc4)C3)cn2)CC1 (stereo partly drawn) [Example 22, Cis-4-((5-(3-phenylpiperidin-1-yl)pyridin-2-yl)methylamino)cyclohexanol]
100 to 1000 | Cc1c(Nc2ccc3c(c2)CCN(C(CO)CO)C3)cccc1-c1ccccc1 [Example 18, 2-(6-(2-methylbiphenyl-3-ylamino)-3,4-dihydroisoquinolin-2(1H)-yl)propane-1,3-diol]
100 to 1000 | O=C(Nc1ccc2cnc(-c3ccccc3)cc2c1Cl)c1ccc(CNCCO)cn1 [Example 12, N-(5-chloro-3-phenylisoquinolin-6-yl)-5-((2-hydroxyethylamino)methyl) picolinamide]
100 to 1000 | Cc1c(C2=CCC(N3CCCC3)CC2)cccc1-c1ccccc1 (centres unmarked) [Example 32, 1-(4-(2-methylbiphenyl-3-yl)cyclohex-3-enyl)pyrrolidine]
100 to 1000 | Cc1c(-c2ccccc2)cccc1-c1cnc2c(c1)CNC2 [Example 17, 3-(2-methylbiphenyl-3-yl)-6,7-dihydro-5H-pyrrolo[3,4-b]pyridine]
10 to 100 | Cc1c(-c2ccccc2)cccc1-c1ccc2c(c1)CCNC2 [Example 13, 6-(2-methylbiphenyl-3-yl)-1,2,3,4-tetrahydroisoquinoline]
100 to 1000 | CCN(C)CC(=O)N1Cc2nc(-c3cccc(-c4cccc(N5CCC6NCCC6C5)c4C)c3C)sc2C1 (centres unmarked) [Example 37, 1-(2-(2,2′-dimethyl-3′-(tetrahydro-1H-pyrrolo[3,2-c]pyridin-5(6H,7H,7aH)-yl)biphenyl-3-yl)-4H-pyrrolo[3,4-d]thiazol-5(6H)-yl)-2-(ethyl(methyl)amino)ethanone]
100 to 1000 | Cc1cc(CN2CCCC[C@H]2C(=O)O)ccc1OC1CCc2c(-c3ccccc3)cccc21 (stereo partly drawn) [Example 10, (2S)-1-(3-methyl-4-(4-phenyl-2,3-dihydro-1H-inden-1-yloxy)benzyl)piperidine-2-carboxylic acid]
100 to 1000 | COc1cccc(-c2cccc(Nc3ncccc3C(=O)NCCNCCO)c2C)c1F [Example 39, 2-(2′-fluoro-3′-methoxy-2-methylbiphenyl-3-ylamino)-N-(2-(2-hydroxyethylamino)ethyl)nicotinamide]
10 to 100 | Cc1c(/C=C/c2ccc(CN3CCCC[C@@H]3C(=O)O)cn2)cccc1-c1ccccc1 [Example 8, (R,E)-1-((6-(2-(2-methyl-[1,1′-biphenyl]-3-yl)vinyl)pyridin-3-yl)methyl)piperidine-2-carboxylic acid]
≤ 10 | COc1cccc(-c2cccc(Nc3nccc(CNCCO)c3F)c2Cl)c1F [Example 3, 2-((2-(2-chloro-2′-fluoro-3′-methoxybiphenyl-3-ylamino)-3-fluoropyridin-4-yl)methylamino)ethanol]
100 to 1000 | Cc1c(-c2ccccc2)cccc1N1CCC(CN)CC1 [Example 27, (1-(2-methylbiphenyl-3-yl)piperidin-4-yl)methanamine]
